{"source": "the supplement of paper PMC11208160"}
{"assay": "recombinant barcode read abundance after kanamycin selection (control-corrected) (log10(CPM+1)); higher = more efficient recombination; sequences stand for … in AGTGCAGAGAAAATCGGCCAGTTTTCTCTGCCTGCAGTCCGCATGCCGT…AGATTTATGCAGCGGACTGCCTTTCTCCCAAAGTGATAAACCGGACAGTATCATGGACCGGTTTTCCCGGTAATCCGTATTTGCAAGGTTGGTTTCACT; site = the 11-nt target", "method_in_brief": "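Pooled oligos, each joining a target to an IS621 bridge RNA target-binding loop, were cloned and co-electroporated with a donor plasmid into E. coli. Selective plates carried chloramphenicol/ampicillin/kanamycin and 0.1 mM IPTG, while chloramphenicol/ampicillin LB agar served as control, with two replicates of each. Recombination efficiency rests on averaged, control-corrected counts per million of barcodes at recombinant junctions, shown as log10(CPM+1).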"}
{"sequence": "CTAGCGACTTGGGTTCTAACCTGTTGCTG (site CTAGCGACTCA)", "recombinant barcode read abundance (log10)": 0.287}
{"sequence": "CTAGGAGCTTGGGTTCTAACCTGTTGCGT (site CTAGAAGCTAC)", "recombinant barcode read abundance (log10)": 1.84}
{"sequence": "CTAGGAGCTTGGGTTCTAACCTGTTGCGT (site CTAGGAGCTAC)", "recombinant barcode read abundance (log10)": 2.12}
{"sequence": "CTAGGATCTTGGGTTCTAACCTGTTGCGT (site CTAGGATCTAC)", "recombinant barcode read abundance (log10)": 2.77}
{"sequence": "CTAGGATCTTGGGTTCTAACCTGTTGCGT (site CTAGTCTCTAC)", "recombinant barcode read abundance (log10)": 0.152}
{"sequence": "CTAGGCCCTTGGGTTCTAACCTGTTGCAT (site CTAGGCCCTAA)", "recombinant barcode read abundance (log10)": 0.379}
{"sequence": "CTAGGCCCTTGGGTTCTAACCTGTTGCAT (site CTAGGCCCTAC)", "recombinant barcode read abundance (log10)": 1.97}
{"sequence": "CTAGGCCCTTGGGTTCTAACCTGTTGCAT (site CTAGGCCCTAG)", "recombinant barcode read abundance (log10)": 0.318}
{"sequence": "CTAGGCCCTTGGGTTCTAACCTGTTGCAT (site CTAGGCCCTAT)", "recombinant barcode read abundance (log10)": 2.77}
{"sequence": "CTAGTAGCTTGGGTTCTAACCTGTTGCTC (site CTAGTAGCTGA)", "recombinant barcode read abundance (log10)": 1.74}
{"sequence": "CTAGTAGCTTGGGTTCTAACCTGTTGCTC (site GTAGCAGCTGA)", "recombinant barcode read abundance (log10)": 0.331}
{"sequence": "CTAGTCACTTGGGTTCTAACCTGTTGCAC (site CTAGTCACTGT)", "recombinant barcode read abundance (log10)": 2.81}
{"sequence": "CTAGTCACTTGGGTTCTAACCTGTTGCAC (site CTAGTGTCTGT)", "recombinant barcode read abundance (log10)": 0.0438}
{"sequence": "CTAGTTGCTTGGGTTCTAACCTGTTGCAA (site CTAATTGCTTT)", "recombinant barcode read abundance (log10)": 0.0799}
{"sequence": "CTAGTTGCTTGGGTTCTAACCTGTTGCAA (site CTACTTGCTTT)", "recombinant barcode read abundance (log10)": 0.229}
{"sequence": "CTAGTTGCTTGGGTTCTAACCTGTTGCAA (site CTAGTTGCTTT)", "recombinant barcode read abundance (log10)": 0.328}
{"sequence": "CTAGTTGCTTGGGTTCTAACCTGTTGCAA (site CTATTTGCTTT)", "recombinant barcode read abundance (log10)": 0.0786}
{"sequence": "CTATAGACTTGGGTTCTAACCTGTTGCCA (site CTATAGACTTG)", "recombinant barcode read abundance (log10)": 0.079}
{"sequence": "CTATAGACTTGGGTTCTAACCTGTTGCCA (site CTCTAGACTAG)", "recombinant barcode read abundance (log10)": 0.206}
{"sequence": "CTATCGACTTGGGTTCTAACCTGTTGCCT (site CTATAGACTAG)", "recombinant barcode read abundance (log10)": 0.0416}
{"sequence": "CTATCGACTTGGGTTCTAACCTGTTGCCT (site CTATCGACTAG)", "recombinant barcode read abundance (log10)": 0.766}
{"sequence": "CTATCGACTTGGGTTCTAACCTGTTGCCT (site CTATGGACTAG)", "recombinant barcode read abundance (log10)": 0.163}
{"sequence": "CTATCGACTTGGGTTCTAACCTGTTGCCT (site CTATTGACTAG)", "recombinant barcode read abundance (log10)": 0.0575}
{"sequence": "CTATCGTCTTGGGTTCTAACCTGTTGCCT (site ATATCGTCTAG)", "recombinant barcode read abundance (log10)": 0.0956}
{"sequence": "CTATCGTCTTGGGTTCTAACCTGTTGCCT (site CTATCGTCTAG)", "recombinant barcode read abundance (log10)": 1.22}
{"sequence": "CTATGCCCTTGGGTTCTAACCTGTTGCTA (site CTATGCCCTTA)", "recombinant barcode read abundance (log10)": 1.16}
{"sequence": "CTATGCCCTTGGGTTCTAACCTGTTGCTA (site CTATGCCCTTC)", "recombinant barcode read abundance (log10)": 0.179}
{"sequence": "CTATGGACTTGGGTTCTAACCTGTTGCAC (site CTATGGACTAT)", "recombinant barcode read abundance (log10)": 0.132}
{"sequence": "CTATGGACTTGGGTTCTAACCTGTTGCAC (site CTATGGACTCT)", "recombinant barcode read abundance (log10)": 0.242}
{"sequence": "CTATGGACTTGGGTTCTAACCTGTTGCAC (site CTATGGACTGT)", "recombinant barcode read abundance (log10)": 1.3}
{"sequence": "CTATGGACTTGGGTTCTAACCTGTTGCAC (site CTATGGACTTT)", "recombinant barcode read abundance (log10)": 0.0443}
{"sequence": "CTATGGACTTGGGTTCTAACCTGTTGCCT (site CTATAGACTAG)", "recombinant barcode read abundance (log10)": 0.398}
{"sequence": "CTATGGACTTGGGTTCTAACCTGTTGCCT (site CTATCGACTAG)", "recombinant barcode read abundance (log10)": 0.196}
{"sequence": "CTATGGACTTGGGTTCTAACCTGTTGCCT (site CTATGGACTAG)", "recombinant barcode read abundance (log10)": 0.872}
{"sequence": "CTATGGACTTGGGTTCTAACCTGTTGCCT (site CTATTGACTAG)", "recombinant barcode read abundance (log10)": 0.027}
{"sequence": "CTATTAGCTTGGGTTCTAACCTGTTGCCG (site CTAGTAGCTCG)", "recombinant barcode read abundance (log10)": 0.418}
{"sequence": "CTATTAGCTTGGGTTCTAACCTGTTGCCG (site CTATTAGCTCG)", "recombinant barcode read abundance (log10)": 0.725}
{"sequence": "CTATTGTCTTGGGTTCTAACCTGTTGCGA (site CTATTGTCTAC)", "recombinant barcode read abundance (log10)": 0.0206}
{"sequence": "CTATTGTCTTGGGTTCTAACCTGTTGCGA (site CTATTGTCTCC)", "recombinant barcode read abundance (log10)": 0.165}
{"sequence": "CTATTGTCTTGGGTTCTAACCTGTTGCGA (site CTATTGTCTGC)", "recombinant barcode read abundance (log10)": 0.0565}
{"sequence": "CTATTGTCTTGGGTTCTAACCTGTTGCGA (site CTATTGTCTTC)", "recombinant barcode read abundance (log10)": 2.4}
{"sequence": "CTCAAAGCTTGGGTTCTAACCTGTTGCCG (site CTCAAAGCTCG)", "recombinant barcode read abundance (log10)": 0.258}
{"sequence": "CTCAAAGCTTGGGTTCTAACCTGTTGCCG (site TAGTCCACTGC)", "recombinant barcode read abundance (log10)": 0.196}
{"sequence": "CTCAAAGCTTGGGTTCTAACCTGTTGCGA (site CTCAAAGCTTC)", "recombinant barcode read abundance (log10)": 1.38}
{"sequence": "CTCAAAGCTTGGGTTCTAACCTGTTGCGA (site GGGGTCCCTAA)", "recombinant barcode read abundance (log10)": 0.189}
{"sequence": "CTCAAGGCTTGGGTTCTAACCTGTTGCGT (site CTCAAGGCTAC)", "recombinant barcode read abundance (log10)": 1.6}
{"sequence": "CTCAAGGCTTGGGTTCTAACCTGTTGCGT (site CTCCAGGCTCC)", "recombinant barcode read abundance (log10)": 0.128}
{"sequence": "CTCACACCTTGGGTTCTAACCTGTTGCCT (site ATCACACCTAG)", "recombinant barcode read abundance (log10)": 0.386}
{"sequence": "CTCACACCTTGGGTTCTAACCTGTTGCCT (site CTCACACCTAG)", "recombinant barcode read abundance (log10)": 0.931}
{"sequence": "CTCACACCTTGGGTTCTAACCTGTTGCTT (site CTCAAACCTAA)", "recombinant barcode read abundance (log10)": 0.257}
{"sequence": "CTCACACCTTGGGTTCTAACCTGTTGCTT (site CTCACACCTAA)", "recombinant barcode read abundance (log10)": 0.328}
{"sequence": "CTCACGACTTGGGTTCTAACCTGTTGCAG (site CTCACGACTCT)", "recombinant barcode read abundance (log10)": 0.273}
{"sequence": "CTCACGACTTGGGTTCTAACCTGTTGCAG (site GAATGAGCTAG)", "recombinant barcode read abundance (log10)": 0.245}
{"sequence": "CTCAGGTCTTGGGTTCTAACCTGTTGCCT (site CTCAGGTCTAG)", "recombinant barcode read abundance (log10)": 1.01}
{"sequence": "CTCAGGTCTTGGGTTCTAACCTGTTGCCT (site CTCAGGTCTTG)", "recombinant barcode read abundance (log10)": 0.197}
{"sequence": "CTCATACCTTGGGTTCTAACCTGTTGCGT (site CTAATACCTAC)", "recombinant barcode read abundance (log10)": 0.151}
{"sequence": "CTCATACCTTGGGTTCTAACCTGTTGCGT (site CTCATACCTAC)", "recombinant barcode read abundance (log10)": 1.92}
{"sequence": "CTCATAGCTTGGGTTCTAACCTGTTGCGA (site CTCATAGCTTC)", "recombinant barcode read abundance (log10)": 1.06}
{"sequence": "CTCATAGCTTGGGTTCTAACCTGTTGCGA (site TGAGGGACTAG)", "recombinant barcode read abundance (log10)": 0.0808}
{"sequence": "CTCATGTCTTGGGTTCTAACCTGTTGCTT (site CTCATGTCTAA)", "recombinant barcode read abundance (log10)": 1.44}
{"sequence": "CTCATGTCTTGGGTTCTAACCTGTTGCTT (site TTCATGTCTAA)", "recombinant barcode read abundance (log10)": 0.222}
{"sequence": "CTCATTCCTTGGGTTCTAACCTGTTGCCT (site CTCATTCCTAA)", "recombinant barcode read abundance (log10)": 0.0318}
{"sequence": "CTCATTCCTTGGGTTCTAACCTGTTGCCT (site CTCATTCCTAC)", "recombinant barcode read abundance (log10)": 0.216}
{"sequence": "CTCATTCCTTGGGTTCTAACCTGTTGCCT (site CTCATTCCTAG)", "recombinant barcode read abundance (log10)": 0.129}
{"sequence": "CTCATTCCTTGGGTTCTAACCTGTTGCCT (site CTCATTCCTAT)", "recombinant barcode read abundance (log10)": 0.0571}
{"sequence": "CTCCAAGCTTGGGTTCTAACCTGTTGCCT (site CTACAAGCTAG)", "recombinant barcode read abundance (log10)": 0.105}
{"sequence": "CTCCAAGCTTGGGTTCTAACCTGTTGCCT (site CTCCAAGCTAG)", "recombinant barcode read abundance (log10)": 0.665}
{"sequence": "CTCCAAGCTTGGGTTCTAACCTGTTGCCT (site CTGCAAGCTAG)", "recombinant barcode read abundance (log10)": 0.0619}
{"sequence": "CTCCAAGCTTGGGTTCTAACCTGTTGCCT (site CTTCAAGCTAG)", "recombinant barcode read abundance (log10)": 0.0961}
{"sequence": "CTCCAATCTTGGGTTCTAACCTGTTGCCT (site CTCCAATCTAG)", "recombinant barcode read abundance (log10)": 0.666}
{"sequence": "CTCCAATCTTGGGTTCTAACCTGTTGCCT (site CTCCTATCTAG)", "recombinant barcode read abundance (log10)": 0.113}
{"sequence": "CTCCAGCCTTGGGTTCTAACCTGTTGCGG (site CTCCAACCTCC)", "recombinant barcode read abundance (log10)": 0.411}
{"sequence": "CTCCAGCCTTGGGTTCTAACCTGTTGCGG (site CTCCAGCCTCC)", "recombinant barcode read abundance (log10)": 1.49}
{"sequence": "CTCCCAACTTGGGTTCTAACCTGTTGCCG (site CTCCCAACTCG)", "recombinant barcode read abundance (log10)": 0.136}
{"sequence": "CTCCCAACTTGGGTTCTAACCTGTTGCCG (site CTCCCTACTCT)", "recombinant barcode read abundance (log10)": 0.356}
{"sequence": "CTCCCAACTTGGGTTCTAACCTGTTGCCT (site CTCCCAACTAG)", "recombinant barcode read abundance (log10)": 0.379}
{"sequence": "CTCCCAACTTGGGTTCTAACCTGTTGCCT (site TTCCCTACTAG)", "recombinant barcode read abundance (log10)": 0.446}
{"sequence": "CTCCCATCTTGGGTTCTAACCTGTTGCGT (site CTCCCATCTAC)", "recombinant barcode read abundance (log10)": 0.874}
{"sequence": "CTCCCATCTTGGGTTCTAACCTGTTGCGT (site CTCCGATCTCC)", "recombinant barcode read abundance (log10)": 0.165}
{"sequence": "CTCCCTTCTTGGGTTCTAACCTGTTGCTT (site CTCCCTTCTAA)", "recombinant barcode read abundance (log10)": 0.534}
{"sequence": "CTCCCTTCTTGGGTTCTAACCTGTTGCTT (site CTTCCTTCTAG)", "recombinant barcode read abundance (log10)": 0.104}
{"sequence": "CTCCGAGCTTGGGTTCTAACCTGTTGCAC (site CTCCGAGCTGT)", "recombinant barcode read abundance (log10)": 0.201}
{"sequence": "CTCCGAGCTTGGGTTCTAACCTGTTGCAC (site GGAACGACTAC)", "recombinant barcode read abundance (log10)": 0.0202}
{"sequence": "CTCCGATCTTGGGTTCTAACCTGTTGCGG (site CTCCCATCTAC)", "recombinant barcode read abundance (log10)": 0}
{"sequence": "CTCCGATCTTGGGTTCTAACCTGTTGCGG (site CTCCGATCTCC)", "recombinant barcode read abundance (log10)": 0.0434}
{"sequence": "CTCCGCCCTTGGGTTCTAACCTGTTGCCT (site CTCCGCCCTAG)", "recombinant barcode read abundance (log10)": 0.776}
